Like-named read-outs stand apart in the source and are kept apart here.
Tests used:
[1] = system: BGC-823 gastric cancer; experiment: MTT assay, proliferation inhibition; format: cell-based; conditions: Homo sapiens, read-out: Proliferation inhibition rate
Excerpt: (§1) 1. Cytotoxicity Assay Using Human Tumor Cell Lines
(§2) Paclitaxel was used as the positive drug.

[2] = system: MDA-MB-436 breast cancer; experiment: MTT assay, proliferation inhibition; format: cell-based; conditions: Homo sapiens, read-out: Proliferation inhibition rate
Excerpt: as §1, §2

[3] = system: LNCaP prostate cancer; experiment: MTT assay, proliferation inhibition; format: cell-based; conditions: Homo sapiens, read-out: Proliferation inhibition rate
Excerpt: as §1, §2

[4] = system: HT29 colon cancer; experiment: MTT assay, proliferation inhibition; format: cell-based; conditions: Homo sapiens, HT-29, read-out: Proliferation inhibition rate
Excerpt: as §1, §2

[5] = system: NCI-H460 non-small cell lung cancer; experiment: MTT assay, proliferation inhibition; format: cell-based; conditions: Homo sapiens, read-out: Proliferation inhibition rate
Excerpt: as §1, §2

[6] = system: B16 melanoma; experiment: MTT assay, proliferation inhibition; format: cell-based; conditions: read-out: Proliferation inhibition rate
Excerpt: as §1, §2

[7] = system: A549 non-small cell lung cancer; experiment: MTT assay, proliferation inhibition; format: cell-based; conditions: Homo sapiens, read-out: Proliferation inhibition rate
Excerpt: as §1, §2

[8] = system: HCT 116 colon cancer; experiment: MTT assay, proliferation inhibition; format: cell-based; conditions: Homo sapiens, read-out: Proliferation inhibition rate
Excerpt: as §1, §2

[9] = MTT assay, proliferation inhibition; format: cell-based; conditions: Homo sapiens, LN-18 gastric cancer, read-out: Proliferation inhibition rate
Excerpt: as §1, §2

[10] = system: A2780 ovarian cancer; experiment: MTT assay, proliferation inhibition; format: cell-based; conditions: Homo sapiens, read-out: Proliferation inhibition rate
Excerpt: as §1, §2

[11] = system: HL60 leukemia; experiment: MTT assay, proliferation inhibition; format: cell-based; conditions: Homo sapiens, HL-60, read-out: Proliferation inhibition rate
Excerpt: as §1, §2

[12] = system: HeLa cervical cancer; experiment: MTT assay, proliferation inhibition; format: cell-based; conditions: Homo sapiens, read-out: Proliferation inhibition rate
Excerpt: as §1, §2

[13] = system: MCF-7 breast cancer; experiment: MTT assay, proliferation inhibition; format: cell-based; conditions: Homo sapiens, MCF7, read-out: Proliferation inhibition rate
Excerpt: as §1, §2

[14] = system: DU145 prostate cancer; experiment: MTT assay, proliferation inhibition; format: cell-based; conditions: Homo sapiens, DU-145, read-out: Proliferation inhibition rate
Excerpt: as §1, §2

[15] = system: A375 melanoma; experiment: MTT assay, proliferation inhibition; format: cell-based; conditions: Homo sapiens, A-375, read-out: Proliferation inhibition rate
Excerpt: as §1, §2

[16] = system: K562 leukemia; experiment: MTT assay, proliferation inhibition; format: cell-based; conditions: Homo sapiens, read-out: Proliferation inhibition rate
Excerpt: as §1, §2

[17] = system: breast cancer cell line MCF-7; experiment: IC50 values on breast cancer cell line MCF-7; format: cell-based; conditions: Homo sapiens
Excerpt: From the activity evaluation data of the above-mentioned preliminary screen, it can be seen that the series of taxanes derivatives synthesized in the present invention have activity (although the activity of PCMI-43 is weakened). Afterward, most of the compounds are picked up from these derivatives to examine their IC50 values on breast cancer cell line MCF-7. Paclitaxel is used as the positive control drug. Experiments for each compound were independently repeated for three times and multiple holes were used in each experiment. The exposure time of drugs was 72 hours.

[18] = system: Caco-2 cell monolayer; experiment: Caco-2 cell monolayer membrane transport assay; conditions: Caco-2 cell line (21 days); for Papp A-B / Papp B-A: bidirectional transport, Table 5
Excerpt: (§3) Caco-2 Cell Monolayer Membrane Transport Assay
(§4) Human-derived colorectal adenocarcinoma cell line Caco-2 cell monolayer model was used to study the bidirectional transport of the target compounds from the apical (AP) side to the basolateral (BL) side and from BL side to AP side. HPLC was used for quantitative analysis to calculate transport parameters, apparent permeability coefficient (Papp) and the efflux ratio.

[19] = Caco-2 cell monolayer membrane transport assay; conditions: human; for Papp A→B: Caco-2, Papp A-B; for recovery: Caco-2, Recovery rate in mass
Excerpt: as §3, §4

[20] = MCF7, 72 h, read-out: MCF-7(IC50, nM)
[21] = Mean, Caco-2, A-B, mean of two samples
[22] = Sample-01, Caco-2, A-B, Sample-01
[23] = Sample-02, Caco-2, A-B, Sample-02
[24] = Caco-2 cell line (21 days), bidirectional transport, Table 5

## CO[C@H]1C[C@H]2OC[C@@]2(OC(C)=O)[C@H]2[C@H](OC(=O)c3ccccc3)[C@]3(O)C[C@H](OC(=O)[C@H](O)[C@@H](NC(=O)OC(C)(C)C)c4ccccc4)C(C)=C([C@@H](OC(=O)N(C)C)C(=O)[C@]12C)C3(C)C [PCMI-22]
[1]
  inhibition at 1 µM: 92%
[2]
  inhibition at 1 µM: 81.1%
[3]
  inhibition at 1 µM: 80.9%
[4]
  inhibition at 1 µM: 87.9%
[5]
  inhibition at 1 µM: 86.5%
[6]
  inhibition at 1 µM: 74.7%
[7]
  inhibition at 1 µM: 69.9%
[8]
  inhibition at 1 µM: 81.1%
[9]
  inhibition at 1 µM: 95.5%
[10]
  inhibition at 1 µM: 96.3%
[11]
  inhibition at 1 µM: 97.5%
[12]
  inhibition at 1 µM: 102%
[13]
  inhibition at 1 µM: 85.7%
[14]
  inhibition at 1 µM: 87.1%
[15]
  inhibition at 1 µM: 87.7%
[16]
  inhibition at 1 µM: 92.2%
[17]; [20]
  IC50: 1.58 ± 0.04 nM
[18]; Papp B-A/Papp A-B
  efflux ratio: 4.08
[18]
  Papp A-B: 8.11 10^−6 cm/s
  Papp B-A: 33.11 10^−6 cm/s
[19]; [21]
  Papp A→B: 8.69 ×10⁻⁶ cm/s
  recovery: 89.4%
[19]; [22]
  Papp A→B: 9 ×10⁻⁶ cm/s
  recovery: 92.4%
[19]; [23]
  Papp A→B: 8.38 ×10⁻⁶ cm/s
  recovery: 86.4%

## CO[C@H]1C[C@H]2OC[C@@]2(OC(C)=O)[C@H]2[C@H](OC(=O)c3ccccc3)[C@]3(O)C[C@H](OC(=O)[C@H](O)[C@H](CC(C)C)NC(=O)OC(C)(C)C)C(C)=C([C@@H](OC(=O)N(C)C)C(=O)[C@]12C)C3(C)C [PCMI-25]
[1]
  inhibition at 1 µM: 90.2%
[2]
  inhibition at 1 µM: 78.4%
[3]
  inhibition at 1 µM: 80.4%
[4]
  inhibition at 1 µM: 87.3%
[5]
  inhibition at 1 µM: 80.7%
[6]
  inhibition at 1 µM: 71.8%
[7]
  inhibition at 1 µM: 69.5%
[8]
  inhibition at 1 µM: 78.3%
[9]
  inhibition at 1 µM: 92.5%
[10]
  inhibition at 1 µM: 94.8%
[11]
  inhibition at 1 µM: 97.7%
[12]
  inhibition at 1 µM: 101%
[13]
  inhibition at 1 µM: 89.8%
[14]
  inhibition at 1 µM: 82.9%
[15]
  inhibition at 1 µM: 89%
[16]
  inhibition at 1 µM: 90.9%
[17]; [20]
  IC50: 1.7 ± 0.08 nM
[18]
  Papp B-A: 32.58 10^−6 cm/s
[19]; [24]
  Papp A→B: 8.25 ×10⁻⁶ cm/s
[19]; [22]
  Papp A→B: 6.41 ×10⁻⁶ cm/s
  recovery: 63.9%
[19]; [23]
  Papp A→B: 9.92 ×10⁻⁶ cm/s
  recovery: 78.5%
[19]; [21]
  recovery: 71.2%

## COC(=O)O[C@H]1C(=O)[C@]2(C)[C@@H](OC)C[C@H]3OC[C@@]3(OC(C)=O)[C@H]2[C@H](OC(=O)c2ccccc2)[C@]2(O)C[C@H](OC(=O)[C@H](O)[C@H](CC(C)C)NC(=O)OC(C)(C)C)C(C)=C1C2(C)C [PCMI-28]
[1]
  inhibition at 1 µM: 92.2%
[2]
  inhibition at 1 µM: 84.3%
[3]
  inhibition at 1 µM: 84%
[4]
  inhibition at 1 µM: 89.1%
[5]
  inhibition at 1 µM: 85.8%
[6]
  inhibition at 1 µM: 74.1%
[7]
  inhibition at 1 µM: 72.5%
[8]
  inhibition at 1 µM: 81.1%
[9]
  inhibition at 1 µM: 97.5%
[10]
  inhibition at 1 µM: 95.6%
[11]
  inhibition at 1 µM: 96.9%
[12]
  inhibition at 1 µM: 99.7%
[13]
  inhibition at 1 µM: 103%
[14]
  inhibition at 1 µM: 85.7%
[16]
  inhibition at 1 µM: 92.6%
[17]; [20]
  IC50: 2.9 ± 0.06 nM
[18]
  Papp A-B: 8.87 10^−6 cm/s
  Papp B-A: 33.26 10^−6 cm/s
[19]; [21]
  Papp A→B: 9.02 ×10⁻⁶ cm/s
  recovery: 70.8%
[19]; [22]
  Papp A→B: 8.58 ×10⁻⁶ cm/s
  recovery: 64.8%
[19]; [23]
  Papp A→B: 9.46 ×10⁻⁶ cm/s
  recovery: 76.8%

## COC(=O)O[C@H]1C[C@H]2OC[C@@]2(OC(C)=O)[C@H]2[C@H](OC(=O)c3ccccc3)[C@]3(O)C[C@H](OC(=O)[C@H](O)[C@@H](NC(=O)OC(C)(C)C)c4ccccc4)C(C)=C([C@@H](OC)C(=O)[C@]12C)C3(C)C [PCMI-36]
[1]
  inhibition at 1 µM: 94.6%
[2]
  inhibition at 1 µM: 77.5%
[3]
  inhibition at 1 µM: 83.8%
[4]
  inhibition at 1 µM: 89.7%
[5]
  inhibition at 1 µM: 90.3%
[6]
  inhibition at 1 µM: 81.8%
[7]
  inhibition at 1 µM: 78%
[8]
  inhibition at 1 µM: 67.2%
[9]
  inhibition at 1 µM: 95.9%
[10]
  inhibition at 1 µM: 96.9%
[11]
  inhibition at 1 µM: 97.8%
[12]
  inhibition at 1 µM: 102%
[13]
  inhibition at 1 µM: 107%
[14]
  inhibition at 1 µM: 88.3%
[15]
  inhibition at 1 µM: 94%
[16]
  inhibition at 1 µM: 94.5%
[17]; [20]
  IC50: 4.97 ± 0.06 nM
[19]; [22]
  Papp A→B: 6.66 ×10⁻⁶ cm/s
  recovery: 95.5%
[19]; [23]
  Papp A→B: 7.29 ×10⁻⁶ cm/s
  recovery: 81.4%
[19]; [21]
  recovery: 88.5%

## CCSC(=O)O[C@H]1C[C@H]2OC[C@@]2(OC(C)=O)[C@H]2[C@H](OC(=O)c3ccccc3)[C@]3(O)C[C@H](OC(=O)[C@H](O)[C@@H](NC(=O)N(C)C)c4ccccc4)C(C)=C([C@@H](OC)C(=O)[C@]12C)C3(C)C [PCMI-40]
[1]
  inhibition at 1 µM: 93.3%
[2]
  inhibition at 1 µM: 83.6%
[3]
  inhibition at 1 µM: 87.2%
[4]
  inhibition at 1 µM: 87.2%
[5]
  inhibition at 1 µM: 87.3%
[6]
  inhibition at 1 µM: 83.7%
[7]
  inhibition at 1 µM: 80.2%
[8]
  inhibition at 1 µM: 67.3%
[9]
  inhibition at 1 µM: 93.9%
[10]
  inhibition at 1 µM: 94.2%
[11]
  inhibition at 1 µM: 96.9%
[12]
  inhibition at 1 µM: 99.6%
[13]
  inhibition at 1 µM: 94.7%
[14]
  inhibition at 1 µM: 90%
[15]
  inhibition at 1 µM: 95.2%
[16]
  inhibition at 1 µM: 92.7%
[17]; [20]
  IC50: 5.49 ± 0.14 nM
[19]; Caco-2
  Papp B→A: 37.2 ×10⁻⁶ cm/s
  efflux ratio: 5.36
[19]; [24]
  Papp A→B: 6.92 ×10⁻⁶ cm/s
[19]; [21]
  Papp A→B: 3.92 ×10⁻⁶ cm/s
  recovery: 74.5%
[19]; [22]
  Papp A→B: 3.78 ×10⁻⁶ cm/s
  recovery: 78.2%
[19]; [23]
  Papp A→B: 4.05 ×10⁻⁶ cm/s
  recovery: 70.7%

## CO[C@H]1C(=O)[C@]2(C)CC[C@H]3OC[C@@]3(OC(C)=O)[C@H]2[C@H](OC(=O)c2ccccc2)[C@]2(O)C[C@H](OC(=O)[C@H](O)[C@@H](NC(=O)OC(C)(C)C)c3ccccc3)C(C)=C1C2(C)C [PCMI-41]
[1]
  inhibition at 1 µM: 93.1%
[2]
  inhibition at 1 µM: 80.1%
[3]
  inhibition at 1 µM: 82.5%
[4]
  inhibition at 1 µM: 88.3%
[5]
  inhibition at 1 µM: 85.7%
[6]
  inhibition at 1 µM: 81.1%
[7]
  inhibition at 1 µM: 77%
[8]
  inhibition at 1 µM: 65%
[9]
  inhibition at 1 µM: 94.6%
[10]
  inhibition at 1 µM: 95.8%
[11]
  inhibition at 1 µM: 97.7%
[12]
  inhibition at 1 µM: 101%
[13]
  inhibition at 1 µM: 95.5%
[14]
  inhibition at 1 µM: 87.6%
[15]
  inhibition at 1 µM: 91.6%
[16]
  inhibition at 1 µM: 94.3%
[17]; MCF7, MCF-7, exposure 72 hours, mean±SD of three independent experiments, read-out: MCF-7(IC50)
  IC50: 3.33 ± 0.11 nM
[19]; [21]
  Papp A→B: 5.03 ×10⁻⁶ cm/s
  recovery: 101%
[19]; [22]
  Papp A→B: 4.27 ×10⁻⁶ cm/s
  recovery: 97%
[19]; [23]
  Papp A→B: 5.79 ×10⁻⁶ cm/s
  recovery: 105%

— US10253007B2, “Taxanes compounds, preparation method therefor, and uses thereof” (Jiangsu Tasly Diyi Pharmaceutical Co., Ltd., priority 2013, dated 2019)
